According to ChEMBL document CHEMBL1201862, “PubChem BioAssay data set” (2004):
Activity calls are given as the source filed them.

What was measured:
[1] = molecular target: T1, Histone-lysine N-methyltransferase NSD2 (Homo sapiens, UniProt O96028); format: biochemical
T1 sequence (O96028 whole entry): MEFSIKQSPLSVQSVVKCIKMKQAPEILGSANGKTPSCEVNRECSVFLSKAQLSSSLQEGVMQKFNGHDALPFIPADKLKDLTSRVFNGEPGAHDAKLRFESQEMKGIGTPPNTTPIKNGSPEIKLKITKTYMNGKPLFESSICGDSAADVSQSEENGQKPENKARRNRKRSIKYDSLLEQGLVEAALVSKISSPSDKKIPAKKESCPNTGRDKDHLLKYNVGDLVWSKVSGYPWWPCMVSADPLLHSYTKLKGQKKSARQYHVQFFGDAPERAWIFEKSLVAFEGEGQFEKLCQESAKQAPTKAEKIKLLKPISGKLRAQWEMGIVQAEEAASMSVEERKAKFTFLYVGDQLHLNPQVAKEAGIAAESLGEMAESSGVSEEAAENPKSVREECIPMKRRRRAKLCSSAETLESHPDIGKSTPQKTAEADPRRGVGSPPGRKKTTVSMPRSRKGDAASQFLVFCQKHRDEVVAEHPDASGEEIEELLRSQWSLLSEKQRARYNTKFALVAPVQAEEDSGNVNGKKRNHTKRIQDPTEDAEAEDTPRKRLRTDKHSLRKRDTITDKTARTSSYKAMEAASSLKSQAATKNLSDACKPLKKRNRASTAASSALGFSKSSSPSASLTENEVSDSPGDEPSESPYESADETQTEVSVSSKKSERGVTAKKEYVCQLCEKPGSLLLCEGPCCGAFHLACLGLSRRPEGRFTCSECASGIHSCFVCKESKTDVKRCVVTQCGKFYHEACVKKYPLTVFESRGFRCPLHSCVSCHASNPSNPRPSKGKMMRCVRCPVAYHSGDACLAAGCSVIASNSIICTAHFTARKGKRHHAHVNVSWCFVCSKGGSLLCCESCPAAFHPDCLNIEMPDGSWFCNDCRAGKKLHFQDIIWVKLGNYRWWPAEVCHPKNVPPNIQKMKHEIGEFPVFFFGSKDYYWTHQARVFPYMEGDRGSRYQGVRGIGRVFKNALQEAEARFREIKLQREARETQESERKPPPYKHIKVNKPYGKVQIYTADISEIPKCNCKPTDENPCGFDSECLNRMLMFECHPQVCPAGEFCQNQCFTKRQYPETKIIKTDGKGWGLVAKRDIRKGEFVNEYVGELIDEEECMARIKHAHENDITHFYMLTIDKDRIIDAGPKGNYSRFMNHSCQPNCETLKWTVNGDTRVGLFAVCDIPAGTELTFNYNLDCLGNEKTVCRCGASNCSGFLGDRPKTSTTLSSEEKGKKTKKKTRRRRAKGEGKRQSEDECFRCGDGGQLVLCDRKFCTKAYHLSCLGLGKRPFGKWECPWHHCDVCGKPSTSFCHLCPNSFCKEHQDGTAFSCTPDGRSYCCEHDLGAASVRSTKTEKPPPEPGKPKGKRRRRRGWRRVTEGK

[2] = NIH-3T3 fibroblast cytotoxicity, dose response, cytotoxicity control, cell-based, fluorescence, Alamar Blue, secondary assay (AID 2327); format: functional;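 note: NIH-3T3 mouse fibroblasts cultured with fluconazole at 8 µg/mL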
[3] = C. albicans growth with fluconazole, confirmation, fluorescence, retest (AID 2467); format: functional, cell-based
[4] = Luminescence Cell-Based Dose Response HTS to Identify Inhibitors of 5'UTR Stem-Loop Driven Prion Protein mRNA Translation in H4 Neuroglioblastoma Cells. [Related pubchem assays: 1827 (Project Summary), 1813 (Primary HTS)]; format: functional
[5] = inhibitors of firefly luciferase expression or activity, dose response, H4 neuroglioma cells, luminescence (AID 1990); format: functional, cell-based
[6] = inhibitors of SNCA 5'UTR-driven reporter translation, confirmation, H4 neuroglioma cells, luminescence (AID 1988); format: functional, cell-based
Galanin receptor type 3 = molecular target: T2, Galanin receptor type 3 (Homo sapiens, UniProt O60755); assay: Fluorescence-based cell-based primary high throughput dose response assay to identify antagonists of the Galanin Receptor 3 (GalR3).; format: functional
T2 sequence (O60755 whole entry): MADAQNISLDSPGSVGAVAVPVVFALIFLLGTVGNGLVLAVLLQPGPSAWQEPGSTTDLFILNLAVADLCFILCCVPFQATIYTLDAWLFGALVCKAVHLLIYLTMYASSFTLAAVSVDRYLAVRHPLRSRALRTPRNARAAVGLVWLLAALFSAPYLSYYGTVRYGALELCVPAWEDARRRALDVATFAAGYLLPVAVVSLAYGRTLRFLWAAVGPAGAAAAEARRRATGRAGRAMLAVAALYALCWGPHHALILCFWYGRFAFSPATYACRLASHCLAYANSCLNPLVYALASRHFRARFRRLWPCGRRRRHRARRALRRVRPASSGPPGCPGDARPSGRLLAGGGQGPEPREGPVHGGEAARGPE

cells = format: functional, cell-based; conditions: HEK-CNG
Nonstructural protein 1 = Nonstructural protein 1 (Influenza A virus, UniProt Q194T2); format: functional, Influenza A virus (A/California/07/2009(H1N1))
[7] = molecular target: Potassium channel subfamily K member 9 (Homo sapiens, UniProt Q9NPC2); assay: TASK3 (KCNK9) channel inhibitors, thallium flux, SAR follow-up, selectivity assay for TASK1 inhibitor project, cell-based, FluxOR thallium flux, concentration-response (AID 652211); format: functional;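 note: potency is for inhibitors of the channel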
[8] = Shn3 3'UTR reporter inhibitors, dose response, cell-based, Clone20 osteoblasts, firefly luciferase, cherry-picked (AID 624132); format: functional;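 note: firefly luciferase luminescence from reporter carrying the Shn3 3'UTR in osteoblasts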
[9] = HepG2 cell cytotoxicity, dose response, cytotoxicity control for Shn3 inhibitor project, CellTiter-Glo, cherry-picked (AID 624134); format: functional, cell-based
[10] = molecular target: T3, COUP transcription factor 2 (Homo sapiens, UniProt P24468); assay: Luminescence-based cell-based high throughput dose response assay to identify inhibitors of COUP-TFII (NR2F2).; format: functional;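 note: HEK293 cells transiently cotransfected with COUP-TFII expression vector and reporter; luciferase reporter luminescence driven by COUP-TFII from the pX2-168 reporter plasmid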
T3 sequence (P24468 whole entry): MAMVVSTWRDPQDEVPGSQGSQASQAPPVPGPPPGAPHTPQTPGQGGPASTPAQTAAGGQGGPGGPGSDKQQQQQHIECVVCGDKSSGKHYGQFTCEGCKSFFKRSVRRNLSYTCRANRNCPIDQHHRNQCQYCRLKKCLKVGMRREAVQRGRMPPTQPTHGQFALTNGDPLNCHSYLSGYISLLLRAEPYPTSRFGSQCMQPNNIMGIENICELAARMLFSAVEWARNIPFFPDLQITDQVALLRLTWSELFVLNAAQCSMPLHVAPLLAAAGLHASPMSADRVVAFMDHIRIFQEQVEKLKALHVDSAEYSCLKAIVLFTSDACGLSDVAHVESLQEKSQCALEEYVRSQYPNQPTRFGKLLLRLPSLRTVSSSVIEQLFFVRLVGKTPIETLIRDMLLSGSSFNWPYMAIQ

[11] = control 3'UTR Renilla luciferase suppression, dose response, counter-screen for Shn3 inhibitor project, cell-based, Clone20-Shn3RL, cherry-picked (AID 624133); format: functional
[12] = A549 cell cytotoxicity, dose response, cytotoxicity control, plate reader, cherry-pick, antagonist series (AID 743412); format: functional, cell-based
[13] = HepG2 cell cytotoxicity, dose response, cytotoxicity control, plate reader, cherry-pick, antagonist series (AID 743416); format: functional, cell-based
[14] = HEK293 cell cytotoxicity, dose response, cytotoxicity control, plate reader, cherry-picked samples (AID 743446); format: functional, cell-based
[15] = MC4R antagonists, dose response, counter-screen for LGR2 antagonist project, cell-based, plate reader, cherry pick (AID 743444); format: functional;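 note: transfected HEK 293 cells stimulated with alpha-MSH peptide; potency of inhibitors of the alpha-MSH evoked signal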

Chain of Potassium channel subfamily K member 9 (Q9NPC2 whole entry): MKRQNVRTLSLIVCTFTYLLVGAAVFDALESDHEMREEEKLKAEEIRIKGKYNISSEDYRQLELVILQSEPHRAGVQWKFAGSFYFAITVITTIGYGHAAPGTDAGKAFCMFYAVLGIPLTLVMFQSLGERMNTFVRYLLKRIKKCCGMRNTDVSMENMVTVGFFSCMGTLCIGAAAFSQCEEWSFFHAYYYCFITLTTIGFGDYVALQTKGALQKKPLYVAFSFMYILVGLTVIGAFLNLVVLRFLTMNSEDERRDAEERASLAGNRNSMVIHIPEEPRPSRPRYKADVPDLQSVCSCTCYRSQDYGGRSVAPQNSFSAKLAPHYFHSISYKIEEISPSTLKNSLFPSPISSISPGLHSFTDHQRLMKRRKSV
Chain of Nonstructural protein 1 (Q194T2 whole entry): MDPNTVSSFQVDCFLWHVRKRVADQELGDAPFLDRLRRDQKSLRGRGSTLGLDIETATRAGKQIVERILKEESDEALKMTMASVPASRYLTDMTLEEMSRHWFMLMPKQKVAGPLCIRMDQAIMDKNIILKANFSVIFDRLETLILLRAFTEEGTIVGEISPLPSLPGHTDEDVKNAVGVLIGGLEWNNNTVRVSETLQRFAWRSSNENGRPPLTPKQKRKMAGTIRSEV

## CCOc1ccccc1NC(=O)CSc1nc(O)c2c(C(F)(F)F)cc(-c3cccs3)nc2n1
[1]
  AC50: > 20 µM (inactive)

## CC[n+]1c(/C=C/C=C/c2ccc(N(C)C)cc2)sc2ccccc21.[O-][Cl+3]([O-])([O-])[O-]
[2]
  EC50: 82.9 µM (active)
[3]
  EC50: < 0.03 µM (active)
[4]
  EC50: 11.2 µM (active)
[1]
  AC50: 7.84 µM (active)
[5]
  EC50: 43.6 µM (active)
[6]
  EC50: 0.666 µM (active)
Galanin receptor type 3
  IC50: > 29.9 µM (inactive)
cells
  EC50: > 29.9 µM (inactive)
Nonstructural protein 1
  IC50: 5.05 µM (active)

## Cc1cccc(C(=O)Nc2cccc(NC(=O)c3ccccc3C)c2)c1
[7]
  IC50: 0.94 µM (active)

## CC(=O)c1c(C)[nH]c(C(=O)COc2cc(C)ccc2C(C)C)c1C
[8]
  AC50: 1.25 µM (active)
[9]
  AC50: 3.12 µM (active)
[10]
  IC50: 5.74 µM (active)
Galanin receptor type 3
  IC50: 1.24 µM (active)
cells
  EC50: > 29.9 µM (inactive)
[11]
  AC50: 8.41 µM (active)

## C[C@@H]1CN([C@H](C)CO)C(=O)Cc2cc(NC(=O)Nc3ccc(F)cc3)ccc2O[C@@H]1CN(C)CC1CCCCC1
[12]
  AC50: 15 µM (active)
[13]
  AC50: 14.6 µM (active)
[14]
  AC50: 16.2 µM (active)
[15]
  AC50: 56.6 µM (active)
